Read-outs that look alike come from different tables or passages of the source.
Experiments:
[1] = system: adenosine deaminase (ADA); experiment: ADA-mediated deamination monitored by absorption and emission; assay type: biochemical
[2] = reported value, cited from earlier work
[3] = Abs: monitored by absorption, first order fit
[4] = Em: monitored by emission, first order fit

Row | Compound | kapp [1, 3] | t1/2 [1, 3] | half-life ([1]; adenosine deaminase (ADA) enzyme reaction) [s] | pKa ([2]; first pKa) | pKa ([2]; second pKa) | kapp [1, 4] | t1/2 [1, 4] | t1/2 ([1]; calculated from absorption spectroscopy data) [s] | t1/2 ([1]; calculated from changes in emission spectra) [s]
1 | Nc1ncnc2c1ncn2[C@@H]1O[C@H](CO)[C@@H](O)[C@H]1O [A, adenosine] | 120 ± 10 × 10^−4 s^−1 | 0.57 ± 0.01 × 10^2 s | 57 | 3.6–4.2 |  |  |  |  | 
2 | Nc1nc2c(ncn2[C@@H]2O[C@H](CO)[C@@H](O)[C@H]2O)c(=O)[nH]1 [G, guanosine] |  |  |  | 3.2–3.3 | 9.2–9.6 |  |  |  | 
3 | Nc1ncnc2c([C@@H]3O[C@H](CO)[C@@H](O)[C@H]3O)snc12 [^tzA] | 220 ± 10 × 10^−4 s^−1 | 0.32 ± 0.02 × 10^2 s |  |  |  | 220 ± 10 × 10^−4 s^−1 | 0.31 ± 0.02 × 10^2 s | 32 ± 2 | 31 ± 2
4 | O=c1ccn([C@@H]2O[C@H](CO)[C@@H](O)[C@H]2O)c(=O)[nH]1 [uridine] |  |  |  | 9.20–9.25 |  |  |  |  | 
